Data: US20240299277A1, “COMPOSITION FOR IMPROVING SKIN” (LG HOUSEHOLD & HEALTH CARE LTD., priority 2020, published 2024)

Tests used:
[1] = Free radical scavenging ability by DPPH method; type: biochemical; details: each component 0.5 mg/mL in methanol; DPPH 0.12 mM; 1 hour; absorbance 517 nm; average of three
Protocol: In Comparative Examples 1 to 4 and Examples 1 to 6, a solution was prepared using methanol as a solvent so that the concentration of each component in the solution was 0.5 mg/mL. In order to confirm the antioxidant effect of Comparative Examples 1 to 4 and Examples 1 to 6, free radical scavenging ability was measured using a 1,1-diphenyl-2-picrylhydrazyl (DPPH) method. […] DPPH was used after being dissolved in methanol at a concentration of 0.12 mM.
Comparative Examples 1 to 4, Examples 1 to 6, and Trolox solutions by concentration (0.0125, 0.025, 0.05, 0.1, 0.2, 0.4, 0.8 mg/mL) were each put into a 24-well plate in an amount of 100 μL, and the DPPH solution was added in an amount of 1,900 μL. After blocking the light at room temperature and leaving it for 1 hour, the absorbance at 517 nm was measured using a microplate reader (BioTek EPOCH). A calibration curve according to the concentration was created using the absorbance values of the Trolox solution at 7 concentrations. In this experiment, Trolox is one indicator for measuring the antioxidative capacity of a sample, and the antioxidative capacity of each comparative example and example is a size compared to Trolox. The degree of antioxidant effect shown by 1 mL of the example solution by substituting the absorbance of the example solution into the calibration curve is expressed in Trolox μmol equivalents/mL and summarized in Table 2 below. The experiment was performed three times, and then an average value was calculated and shown.

MNT-1 melanoma cells = assay: Inhibition of melanin production in MNT-1 melanoma cells; type: cell-based; details: each component 3 μg/mL (3 ppm); 72 hours; relative to methanol negative control; average of three
Protocol: To culture MNT-1 melanoma cells, a mixture of Dulbecco's Modified Eagle's Medium (DMEM) and 10% fetal bovine serum (FBS) was used as a basal medium. MNT-1 melanoma cells were dispensed in a 6-well plate at a concentration of 1-2×10^5 cells/mL and cultured for 24 hours. Samples were treated so that the final concentration of each component of Comparative Examples 1 to 4 and Examples 1 to 6 was 3 μg/mL (3 ppm), and then cultured for 72 hours. As a positive control, arbutin was treated to be 200 μg/mL (200 ppm) (positive control in Table 3). Thereafter, the cells were treated with trypsin, detached from the culture vessel, centrifuged at 13,000 rpm for 1 minute, and then the supernatant was removed. Cells were lysed by adding 300 μL of a 0.5% Triton X-100 solution to the remaining cells. This was again centrifuged at 13,000 rpm for 3 minutes to recover the pellet and supernatant separately. Melanin in the pellet was dissolved by adding 100 μL of a 0.5 N sodium hydroxide solution and incubating for 12 hours, and absorbance at 450 nm was measured using a spectrophotometer to measure the total amount of melanin produced.
The total amount of inhibited melanin production was calculated as a melanin production inhibition rate (%) relative to a group (negative control group) treated with methanol (Equation 1 below), and the experiment was performed three times, and then an average value was calculated and shown in Table 3.

[2] = test system: human-derived fibroblasts; assay: Collagen synthesis promotion in fibroblasts (Procollagen 1α1 ELISA); type: cell-based; details: each component 3 μg/mL (3 ppm); 24 hours; medium without FBS; relative to methanol negative control; average of three
Protocol: A mixture of DMEM and 10% FBS was used as a basal medium for culturing human-derived fibroblasts. Skin fibroblasts were dispensed in a 48-well plate at a concentration of 2-5×10^4 cells/mL and cultured for 24 hours. The basal medium with growth factors was removed, and a medium (a medium to which FBS was not added) having a final concentration of 3 μg/mL (3 ppm) of each component of Comparative Examples 1 to 4 and Examples 1 to 6 was added and cultured for 24 hours. A positive control for inducing collagen synthesis was treated with TGF-β to be 5 ng/mL (5 ppb) (positive control in Table 4). A cell culture solution was taken and synthesized collagen was measured using a Human Procollagen 1α1 Duoset ELISA Kit (R&D Systems) and a spectrophotometer.
A calibration curve was created by measuring the separated and purified collagen at concentrations of 0.25, 0.5, 1, 2, 4, and 8 ng/mL, and based on this, the collagen (Type I collagen) production amounts of Comparative Examples 1 to 4 and Examples 1 to 6, a negative control group, and a positive control group were calculated. The collagen production amount was calculated using a collagen production rate (%) relative to the group treated with methanol (negative control group) (Equation 2 below), and the experiment was performed three times, and then an average value was calculated and shown in Table 4.

Human skin keratinocytes = assay: Hyaluronic acid synthesis promotion in keratinocytes (Hyaluronan ELISA); type: cell-based; details: each component 3 μg/mL (3 ppm); 24 hours; medium without EGF and BPE; relative to methanol negative control; average of three
Protocol: Human skin keratinocytes (primary cultured human skin keratinocytes) were purchased from Thermo Fisher Scientific and cultured using Keratinocyte-SFM supplemented with epidermal growth factor (EGF), which is a growth factor, and bovine pituitary extract (BPE). The keratinocytes were dispensed in a 60-mm culture plate at a concentration of 2-5×10^5 cells/mL and cultured for 24 hours. The basal medium with growth factors was removed, and a medium (a medium to which EGF and BPE were not added) having a final concentration of 3 μg/mL (3 ppm) of each component of Comparative Examples 1 to 4 and Examples 1 to 6 was added and cultured for 24 hours. A positive control for inducing hyaluronic acid synthesis was treated with all-trans-retinoic acid to be 100 nM (positive control in Table 5). A cell culture solution was taken and synthesized hyaluronic acid was measured using a Hyaluronan DuoSet ELISA Kit (R&D Systems) and a spectrophotometer.
A calibration curve was created by measuring standard hyaluronic acid at concentrations of 1.1, 3.3, 10, 30, and 90 ng/mL, and based on this, the hyaluronic acid production amounts of Comparative Examples 1 to 4 and Examples 1 to 6, a negative control group, and […] were calculated. The hyaluronic acid production amount was calculated using a hyaluronic acid production rate (%) relative to the group treated with methanol (negative control group) (Equation 2 below), and the experiment was performed three times, and then an average value was calculated and shown in Table 5.

Row | Compound | Trolox μmol equivalents/mL [1] | Melanin production Inhibition rate (%) (MNT-1 melanoma cells) | Collagen Production rate (%) [2] [%] | Hyaluronic acid Production rate (%) (Human skin keratinocytes)
1 | C[C@@H]1CC[C@H]2C(C)(C)[C@H]3C[C@@]12CC[C@@]3(C)O [compound 1, Cedrol] | 0.104 Trolox μmol equivalents/mL | 17.5 | 27.9 | 5.6
2 | COc1cc(/C=C/C(=O)O)ccc1O [compound 2, Ferulic acid] | 0.981 Trolox μmol equivalents/mL | 16.3 | 8.8 | 32.2
3 | CC[C@H](CC[C@@H](C)[C@H]1CC[C@H]2[C@@H]3CC=C4C[C@@H](O)CC[C@]4(C)[C@H]3CC[C@]12C)C(C)C [compound 3, Beta-sitosterol] | 0.051 Trolox μmol equivalents/mL | 1.7 | 2.4 | −3.0
4 | CCCCC/C=C\C/C=C\CCCCCCCC(=O)O [compound 4, Linoleic acid] | 0.023 Trolox μmol equivalents/mL | 6.7 | −2.5 | 4.1
